According to ChEMBL document CHEMBL1130201, “Antimalarial activity of molecules interfering with Plasmodium falciparum phospholipid metabolism. Structure-activity relationship analysis” (J Med Chem, 1997):

Tested on: Plasmodium falciparum
Assay: Inhibitory activity against Plasmodium falciparum
Type: functional, organism-based

| Molecule | IC50 (Plasmodium falciparum) | IC50 |
| --- | --- | --- |
| CC(Cc1ccccc1)[N+](C)(C)CCO (stereo unspecified) | 250 µM |  |
| C[C@H]1O[C@@H](C[N+](C)(C)C)C[C@@H]1O | > 200 µM |  |
| CN(C)CCOC(=O)COc1ccc(Cl)cc1 [MECLOFENOXATE] | 500 µM |  |
| CCC(N)(CO)CO | 600 µM |  |
| NCCS [CYSTEAMINE] | 200 µM |  |
| CC[N+](CC)(CCO)CCCCC[N+](CC)(CC)CCO | 1260 µM |  |
| C[N+](C)(C)C1CCCCC1O (stereo unspecified) | 700 µM |  |
| OC1CCCNC1 (stereo unspecified) | > 1000 µM |  |
| CCCCCCC[N+](C)(C)C | 300 µM |  |
| CN(C)CCO [DIMETHYLAMINOETHANOL] | 1300 µM |  |
| C[N+](C)(C)CCOP(=O)([O-])O | 1200 µM |  |
| C[N+](C)(CCO)CC(=O)c1ccc(-c2ccc(C(=O)C[N+](C)(C)CCO)cc2)cc1 | 4 µM |  |
| C[N+]1(CCO)CCCC1 | 230 µM |  |
| C[N+](C)(C)CCCCCC[N+](C)(C)C [HEXAMETHONIUM BROMIDE] | 700 µM |  |
| CCCCCCCCCCCCCCCCCC[N+](C)(C)C [TRIMETHYL-OCTADECYL-AMMONIUM CHLORIDE] | 2.1 µM |  |
| CN(C)CCCCCCN(C)C | 130 µM |  |
| NC(CO)CO | 50 µM |  |
| CCCCC[N+](C)(C)CCO | 81.3 µM |  |
| C[N+](C)(CCO)CCc1ccccc1 | 110 µM |  |
| CC(C)(C)CCO | > 2000 µM |  |
| C[N+](C)(C)CCCCCCCCCCCC[N+](C)(C)C | 0.09 µM |  |
| OCCN1CCCC1 | 420 µM |  |
| C[N+]1(CCCCC[N+]2(C)CCCC2)CCCC1 | 650 µM |  |
| CCCCCCCCCCCC[N+](C)(C)CCBr | 0.21 µM |  |
| C[N+](C)(C)CCCl [CHLORMEQUAT CHLORIDE] | 200 µM |  |
| C[N+]1(CCO)CCOCC1 | 4830 µM |  |

| Molecule | IC50 (Plasmodium falciparum) | IC50 |
| --- | --- | --- |
| CCCCCCCCCCCC[N+](C)(C)C | 0.5 µM |  |
| C[N+](C)(C)CCCCCCCCCC[N+](C)(C)C [DECAMETHONIUM BROMIDE] | 1.7 µM |  |
| C[N+](C)(CCO)Cc1ccccc1 | 112 µM |  |
| C[Se+](C)CCO | 420 µM |  |
| CC(O)CN (stereo unspecified) | 800 µM |  |
| CC(C)(N)CO [DEANOL] | 900 µM |  |
| OC1CCNC1 (stereo unspecified) | > 1000 µM |  |
| OCCNCc1ccccc1 | 40 µM |  |
| CCN(CC)CCO [DIETHYLAMINOETHANOL] | 400 µM |  |
| CC[N+](CC)(CC)CC [TETRYLAMMONIUM BROMIDE] | 700 µM |  |
| NCCCCCO | > 2000 µM |  |
| C[N+](C)(CCO)C1CCCCC1 | 120 µM |  |
| CC(N)CO (stereo unspecified) | 300 µM |  |
| OCCN1CCN(CCO)CC1 | 1200 µM |  |
| CCCCCCCCCCCCNCCOC | 2.1 µM |  |
| CC[N+](C)(C)CCO | > 300 µM |  |
| CC(=O)OCC[N+](C)(C)C [ACETYLCHOLINE CHLORIDE] | > 8000 µM |  |
| OCCNCCO [DIETHANOLAMINE] | 1100 µM |  |
| NCCCO | 800 µM |  |
| OCCN1CC1 | 50 µM |  |
| NCCCCCN | 2000 µM |  |
| C[N+](C)(C)CC(=O)O [BETAINE] | > 8000 µM |  |
| CETRIMIDE |  | 0.9 µM |
| CCC(N)CO (stereo unspecified) | 80 µM |  |
| OCCN1CCCCC1 | 350 µM |  |

Further molecules by falling IC50 (Plasmodium falciparum), results first:

| IC50 (Plasmodium falciparum) | IC50 | Molecule |
| --- | --- | --- |
| 2 µM |  | CC[N+](CC)(CCO)CCCCCCCCCC[N+](CC)(CC)CCO |
| 1.6 µM |  | CCCCCCCCC[N+](C)(C)C |
| 1.5 µM |  | CCCCCCCCCCCC[N+](CC)(CCO)CCCCCCCCCCCC |
| 1.3 µM |  | CCCCCCCCCCCCN(C)CCO |
| 1.3 µM |  | CCCCCCCCCCCCCCCCCC[N+](C)(C)CCO |
| 1 µM |  | CCCCCCCCCCCCCC[N+](C)(C)Cc1ccccc1 [MIRISTALKONIUM CHLORIDE] |
| 0.97 µM |  | CCCCCCCCCC[N+](C)(C)CCO |
| 0.84 µM |  | CCCCCCCCCCCC[N+](C)(CCO)CCCCCCCCCCCC |
| 0.7 µM |  | CCCCCCCCCC[N+](C)(C)C |
| 0.7 µM |  | CCCCCCCCCCCC[N+](C)(C)CCCCCCCCCCCC |
| 0.7 µM |  | CCCCCCCCCCCCCCCCCC[N+](C)(C)Cc1ccccc1 |
| 0.62 µM |  | CCCCCCCCCCCCCCCCCC[N+](CC)(CC)CCO |
| 0.61 µM |  | CCCCCCCCCCCCNC(CC)CO (stereo unspecified) |
| 0.6 µM |  | CCCCCCCCCCCCCC[N+](C)(C)CCO |
| 0.55 µM |  | CCCCCCCCCCCCCC[N+](CC)(CC)CCO |
| 0.51 µM |  | CCCCCCCCCCCCNCCO |
| 0.5 µM |  | CCCCCCCCCCC[N+](C)(C)C |
| 0.48 µM |  | CCCCCCCCCCCC[N+](C)(C)CCO |
| 0.34 µM |  | CCCCCCCCCCCC[N+](CC)(CC)CCO |
| 0.26 µM |  | CCCCCCCCCCCC[N+](C)(C)CCCC |
| 0.15 µM |  | CCCCCCCCCCCC[N+](C)(C)CCC |
| 0.15 µM |  | C[N+]1(CCCCCCCCCC[N+]2(C)CCCC2)CCCC1 |
| 0.11 µM |  | CCCCCCCCCCCC[N+](C)(C)CC |
| 0.064 µM |  | CCCCCCCCCCCC[N+](CC)(CC)CC |
| 0.033 µM |  | CCCCCCCCCCCC[N+](CCC)(CCC)CCC |
